For assay [1], the target named is T1, TgIMPα (Toxoplasma gondii, UniProt A0A125YID0).
T1 sequence (A0A125YID0 1-545): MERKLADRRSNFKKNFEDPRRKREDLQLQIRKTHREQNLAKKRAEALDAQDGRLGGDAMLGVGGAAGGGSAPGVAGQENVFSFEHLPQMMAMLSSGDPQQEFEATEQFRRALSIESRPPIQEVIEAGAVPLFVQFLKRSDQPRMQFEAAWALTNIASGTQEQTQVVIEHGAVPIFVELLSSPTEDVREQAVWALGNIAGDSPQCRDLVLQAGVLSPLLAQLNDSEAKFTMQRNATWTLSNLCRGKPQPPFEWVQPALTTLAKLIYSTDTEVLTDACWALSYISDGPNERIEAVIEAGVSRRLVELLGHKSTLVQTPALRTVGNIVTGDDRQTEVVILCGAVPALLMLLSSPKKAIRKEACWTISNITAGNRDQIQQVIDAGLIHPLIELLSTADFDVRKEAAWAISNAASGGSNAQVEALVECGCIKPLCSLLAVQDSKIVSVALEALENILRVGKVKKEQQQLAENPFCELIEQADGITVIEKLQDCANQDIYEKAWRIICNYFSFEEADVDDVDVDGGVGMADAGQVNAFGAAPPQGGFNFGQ
The experiment in a line: intrinsic tryptophan fluorescence quenching. Format: binding.

Assay [2] concerns T. gondii. The experiment in a line: microbe, parasite or virus in culture. Particulars: Toxoplasma gondii, read-out: Cell viability IC50 (µM). Details: species or system T. gondii RH-luciferase in HFF.
The target in assay [3] is T1, TgIMPα. The experiment in a line: AlphaScreen, inhibition of IMPα:NLS interaction. Format: binding. On the technique in general: Alpha assays give light when donor and acceptor beads are brought close together.
The target in assay [4] is T2, PfIMPα (Plasmodium falciparum, UniProt Q8IAW0).
T2 sequence (Q8IAW0 1-545): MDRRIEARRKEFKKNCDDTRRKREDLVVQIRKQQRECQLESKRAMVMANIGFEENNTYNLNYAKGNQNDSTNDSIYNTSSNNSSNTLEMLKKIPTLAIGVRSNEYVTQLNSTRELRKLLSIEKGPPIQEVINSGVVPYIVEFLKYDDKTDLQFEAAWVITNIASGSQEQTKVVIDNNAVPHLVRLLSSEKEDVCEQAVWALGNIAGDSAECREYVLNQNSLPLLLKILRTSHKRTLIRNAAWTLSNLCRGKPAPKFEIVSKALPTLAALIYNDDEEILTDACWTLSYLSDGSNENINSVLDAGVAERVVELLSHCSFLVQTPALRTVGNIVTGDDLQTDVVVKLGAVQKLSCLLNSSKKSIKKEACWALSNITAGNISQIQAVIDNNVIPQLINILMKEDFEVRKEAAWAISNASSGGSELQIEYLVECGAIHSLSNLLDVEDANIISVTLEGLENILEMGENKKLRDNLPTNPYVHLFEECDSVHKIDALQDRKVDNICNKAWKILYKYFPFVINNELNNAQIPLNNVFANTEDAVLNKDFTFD
The assay can be described thus: intrinsic tryptophan fluorescence quenching. Format: binding.

In general, IC50 refers to the concentration that inhibits the measured activity by half. As to `Cc1ccc(S(=O)(=O)/C=C/C#N)cc1` [Bay 11-7082], the IC50 in assay [1] amounted to 17.5 ± 3.3 µM; in assay [2] it was 1.06 ± 0.07 µM; in assay [3] it was 8.2 ± 1.3 µM.

Turning to `CC(C)(C)c1ccc(S(=O)(=O)/C=C/C#N)cc1` [Bay 11-7085], the half-maximal inhibitory concentration (IC50) in assay [1] is 27.7 ± 9.4 µM; in assay [4] it was 19.9 ± 3.7 µM.

The record behind these values is doi:10.1101/2024.07.10.602875v1 (biorxiv, 2024).
